The compounds below were run against T1, Glucocorticoid Receptor (GR) (Homo sapiens, UniProt P04150) (assay: GR receptor competitor assay by fluorescence polarization (Invitrogen GR competitor assay kit, cat No. P2816)). Details: 20 μM test compound solution, 10 μL per well plus 5 μL 4×GS1 and 5 μL 4×GR solution; recombinant human GR; 2 to 4 hours at room temperature; a ratio of 100% or more is indicated by 100%; read-out: GR Binding ratio (%).
T1 construct: purchased Invitrogen P2816
T1 sequence (P04150 1-777): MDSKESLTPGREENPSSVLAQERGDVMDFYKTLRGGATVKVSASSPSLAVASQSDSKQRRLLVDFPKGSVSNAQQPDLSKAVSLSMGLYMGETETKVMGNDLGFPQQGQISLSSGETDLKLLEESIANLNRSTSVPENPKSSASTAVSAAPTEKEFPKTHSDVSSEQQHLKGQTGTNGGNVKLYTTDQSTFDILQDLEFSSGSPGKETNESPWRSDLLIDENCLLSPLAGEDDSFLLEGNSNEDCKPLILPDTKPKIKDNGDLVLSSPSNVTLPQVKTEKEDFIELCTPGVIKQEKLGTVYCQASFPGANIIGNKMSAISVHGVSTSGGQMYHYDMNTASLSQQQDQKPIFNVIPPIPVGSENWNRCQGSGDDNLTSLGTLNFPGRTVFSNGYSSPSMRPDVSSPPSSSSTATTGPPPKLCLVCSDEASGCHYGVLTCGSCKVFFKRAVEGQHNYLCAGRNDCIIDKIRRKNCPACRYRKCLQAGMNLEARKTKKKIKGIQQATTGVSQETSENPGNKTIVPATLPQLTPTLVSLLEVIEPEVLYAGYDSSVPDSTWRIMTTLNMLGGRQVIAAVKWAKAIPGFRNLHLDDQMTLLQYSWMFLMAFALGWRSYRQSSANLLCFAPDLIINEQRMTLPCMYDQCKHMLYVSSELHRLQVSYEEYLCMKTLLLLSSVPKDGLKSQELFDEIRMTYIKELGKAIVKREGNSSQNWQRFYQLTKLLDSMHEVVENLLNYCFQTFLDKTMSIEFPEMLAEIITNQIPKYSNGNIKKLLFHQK
Summary of the method: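 Recombinant human GR with fluorescent ligand Fluormone GS1 in pH 7.4 phosphate buffer with molybdate, EDTA, DTT, stabilizing peptide and 2% DMSO; compound added as 20 μM solution (pre-mix). FP read after 2–4 h at room temperature in the dark. Binding ratio (%) normalized between buffer and dexamethasone controls.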
In the case of `COc1cc(OC(=O)c2ccc(C(C)=O)cc2)ccc1-c1ccc2c(c1COc1cc(F)ccc1C)C(C)=CC(C)(C)N2` [Compound 1-67, 6-[4-(4-Acetylbenzoyloxy)-2-methoxyphenyl]-5-(5-fluoro-2-methylphenoxymethyl)-2,2,4-trimethyl-1,2-dihydroquinoline], the inhibition at 10 µM is reported as 100%.
In the case of `COc1cc(OC(=O)C2CCCCC2)ccc1-c1ccc2c(c1COc1cc(F)ccc1C)C(C)=CC(C)(C)N2` [Compound 1-12, 6-(4-Cyclohexylcarbonyloxy-2-methoxyphenyl)-5-(5-fluoro-2-methylphenoxymethyl)-2,2,4-trimethyl-1,2-dihydroquinoline], the inhibition at 10 µM is reported as 100%.
`COc1cc(OC(=O)Cc2ccccc2)ccc1-c1ccc2c(c1COc1cc(F)ccc1C)C(C)=CC(C)(C)N2` [Compound 1-21, 5-(5-Fluoro-2-methylphenoxymethyl)-6-(2-methoxy-4-phenylacetoxyphenyl)-2,2,4-trimethyl-1,2-dihydroquinoline] showed an inhibition at 10 µM of 100%.
Work on `CCCS(=O)(=O)Oc1ccc(-c2ccc3c(c2COc2cc([N+](=O)[O-])ccc2C)C(C)=CC(C)(C)N3)c(OC)c1` [Compound 4-25, 6-(2-Methoxy-4-propylsulfonyloxyphenyl)-5-(2-methyl-5-nitrophenoxymethyl)-2,2,4-trimethyl-1,2-dihydroquinoline] yielded an inhibition at 10 µM of 100%.
In the case of `COc1cc(OC(=O)c2ccccc2F)ccc1-c1ccc2c(c1COc1cc(F)ccc1C)C(C)=CC(C)(C)N2` [Compound 1-59, 6-[4-(2-Fluorobenzoyloxy)-2-methoxyphenyl]-5-(5-fluoro-2-methylphenoxymethyl)-2,2,4-trimethyl-1,2-dihydroquinoline], the inhibition at 10 µM is reported as 100%.
`COc1cc(OC(=O)c2ccc(C)nc2)ccc1-c1ccc2c(c1COc1cc(F)ccc1C)C(C)=CC(C)(C)N2` [Compound 1-69, 5-(5-Fluoro-2-methylphenoxymethyl)-6-[2-methoxy-4-(6-methylpyridin-3-ylcarbonyloxy)phenyl]-2,2,4-trimethyl-1,2-dihydroquinoline] gave an inhibition at 10 µM of 100%.
Work on `CCC(=O)Oc1ccc(OC)c(-c2ccc3c(c2COc2cc(F)ccc2C)C(C)=CC(C)(C)N3)c1` [Compound 1-27, 5-(5-Fluoro-2-methylphenoxylmethyl)-6-(2-methoxy-5-propionyloxyphenyl)-2,2,4-trimethyl-1,2-dihydroquinoline] yielded an inhibition at 10 µM of 84%.
Compound `COc1cc(OC(=O)c2ccccc2Cl)ccc1-c1ccc2c(c1COc1cc(F)ccc1C)C(C)=CC(C)(C)N2` [Compound 1-11, 6-[4-(2-Chlorobenzoyloxy)-2-methoxyphenyl]-5-(5-fluoro-2-methylphenoxymethyl)-2,2,4-trimethyl-1,2-dihydroquinoline] has an inhibition at 10 µM of 100%.
Compound `COc1ccc([N+](=O)[O-])cc1OCc1c(-c2ccc(OC(=O)c3cccnc3C)cc2OC)ccc2c1C(C)=CC(C)(C)N2` [Compound 1-101, 6-[2-Methoxy-4-(2-methylpyridin-3-ylcarbonyloxy)phenyl]-5-(2-methoxy-5-nitrophenoxymethyl)-2,2,4-trimethyl-1,2-dihydroquinoline] has an inhibition at 10 µM of 99%.
With `COc1ccc(OC(=O)c2ccncc2)cc1-c1ccc2c(c1COc1cc(F)ccc1C)C(C)=CC(C)(C)N2` [Compound 1-45, 5-(5-Fluoro-2-methylphenoxymethyl)-6-[2-methoxy-5-(pyridin-4-ylcarbonyloxy)phenyl]-2,2,4-trimethyl-1,2-dihydroquinoline] the inhibition at 10 µM was 95%.
`COc1ccccc1C(=O)Oc1ccc(-c2ccc3c(c2COc2cc([N+](=O)[O-])ccc2C)C(C)=CC(C)(C)N3)c(OC)c1` [Compound 1-93, 6-[2-Methoxy-4-(2-methoxybenzoyloxy)phenyl]-5-(2-methyl-5-nitrophenoxymethyl)-2,2,4-trimethyl-1,2-dihydroquinoline] gave an inhibition at 10 µM of 92%.
For `C=CC(=O)Oc1ccc(-c2ccc3c(c2COc2cc(F)ccc2C)C(C)=CC(C)(C)N3)c(OC)c1` [Compound 1-17, 6-(4-Acryloyloxy-2-methoxyphenyl)-5-(5-fluoro-2-methylphenoxymethyl)-2,2,4-trimethyl-1,2-dihydroquinoline], the inhibition at 10 µM was 100%.
`COc1cc(OC(=O)C(C)(C)C)ccc1-c1ccc2c(c1COc1cc(F)ccc1C)C(C)=CC(C)(C)N2` [Compound 1-72, 6-(4-t-Butylcarbonyloxy-2-methoxyphenyl)-5-(5-fluoro-2-methylphenoxymethyl)-2,2,4-trimethyl-1,2-dihydroquinoline] gave an inhibition at 10 µM of 98%.
Compound `COc1cc(OC(=O)c2ccc(C)o2)ccc1-c1ccc2c(c1COc1cc(F)ccc1C)C(C)=CC(C)(C)N2` [Compound 1-62, 5-(5-Fluoro-2-methylphenoxymethyl)-6-[2-methoxy-4-(5-methylfuran-2-ylcarbonyloxy)phenyl]-2,2,4-trimethyl-1,2-dihydroquinoline] has an inhibition at 10 µM of 100%.
`COc1cc(OS(=O)(=O)C2CC2)ccc1-c1ccc2c(c1COc1cc(F)ccc1C)C(C)=CC(C)(C)N2` [Compound 4-27, 6-(4-Cyclopropylsulfonyloxy-2-methoxyphenyl)-5-(5-fluoro-2-methylphenoxymethyl)-2,2,4-trimethyl-1,2-dihydroquinoline] was tested, and the inhibition at 10 µM was 100%.
With `COc1cc(OS(=O)(=O)C2CCCC2)ccc1-c1ccc2c(c1COc1cc(F)ccc1C)C(C)=CC(C)(C)N2` [Compound 4-29, 6-(4-Cyclopentylsulfonyloxy-2-methoxyphenyl)-5-(5-fluoro-2-methylphenoxymethyl)-2,2,4-trimethyl-1,2-dihydroquinoline] the inhibition at 10 µM was 100%.
In the case of `COc1cc(OC(=O)c2cccnc2)ccc1-c1ccc2c(c1COc1cc(F)ccc1C)C(C)=CC(C)(C)N2` [Compound 1-13, 5-(5-Fluoro-2-methylphenoxymethyl)-6-[2-methoxy-4-(pyridin-3-ylcarbonyloxy)phenyl]-2,2,4-trimethyl-1,2-dihydroquinoline], the inhibition at 10 µM is reported as 100%.
In the case of `CCCCS(=O)(=O)Oc1ccc(-c2ccc3c(c2COc2cc(F)ccc2C)C(C)=CC(C)(C)N3)c(OC)c1` [Compound 4-14, 6-(4-Butylsulfonyloxy-2-methoxyphenyl)-5-(5-fluoro-2-methylphenoxymethyl)-2,2,4-trimethyl-1,2-dihydroquinoline], the inhibition at 10 µM is reported as 90%.
With `COc1ccc(C(=O)Oc2ccc(-c3ccc4c(c3COc3cc(F)ccc3C)C(C)=CC(C)(C)N4)c(OC)c2)cc1` [Compound 1-6] the inhibition at 10 µM was 100%.
Work on `COc1cc(OS(=O)(=O)C(C)C)ccc1-c1ccc2c(c1COc1cc(F)ccc1C)C(C)=CC(C)(C)N2` [Compound 4-13, 5-(5-Fluoro-2-methylphenoxymethyl)-6-(4-isopropylsulfonyloxy-2-methoxyphenyl)-2,2,4-trimethyl-1,2-dihydroquinoline] yielded an inhibition at 10 µM of 89%.
`COc1ccccc1OC(=O)Oc1ccc(-c2ccc3c(c2COc2cc(F)ccc2C)C(C)=CC(C)(C)N3)c(OC)c1` [Compound 5-5, 5-(5-Fluoro-2-methylphenoxymethyl)-6-[2-methoxy-4-(2-methoxyphenoxycarbonyloxy)phenyl]-2,2,4-trimethyl-1,2-dihydroquinoline] was tested, and the inhibition at 10 µM was 93%.
For `COC(=O)c1cccc(C(=O)Oc2ccc(-c3ccc4c(c3COc3cc(F)ccc3C)C(C)=CC(C)(C)N4)c(OC)c2)c1` [Compound 1-68, 5-(5-Fluoro-2-methylphenoxymethyl)-6-[2-methoxy-4-(3-methoxycarbonylbenzoyloxy)phenyl]-2,2,4-trimethyl-1,2-dihydroquinoline], the inhibition at 10 µM was 100%.
Work on `CCC(=O)Oc1ccc(-c2ccc3c(c2COc2cc(F)ccc2C)C(C)=CC(C)(C)N3)c(OC)c1` [Compound 1-16, 5-(5-Fluoro-2-methylphenoxymethyl)-6-(2-methoxy-4-propionyloxyphenyl)-2,2,4-trimethyl-1,2-dihydroquinoline] yielded an inhibition at 10 µM of 100%.
In the case of `COc1cc(OC(=O)c2occc2C)ccc1-c1ccc2c(c1COc1cc(F)ccc1C)C(C)=CC(C)(C)N2` [Compound 1-71, 5-(5-Fluoro-2-methylphenoxymethyl)-6-[2-methoxy-4-(3-methylfuran-2-ylcarbonyloxy)phenyl]-2,2,4-trimethyl-1,2-dihydroquinoline], the inhibition at 10 µM is reported as 100%.
`COc1cc(OC(=O)c2ccncc2)ccc1-c1ccc2c(c1COc1cc(F)ccc1C)C(C)=CC(C)(C)N2` [Compound 1-43, 5-(5-Fluoro-2-methylphenoxymethyl)-6-[2-methoxy-4-(pyridin-4-ylcarbonyloxy)phenyl]-2,2,4-trimethyl-1,2-dihydroquinoline] showed an inhibition at 10 µM of 100%.
Compound `COc1cc(OC(=O)CNC(=O)OC(C)(C)C)ccc1-c1ccc2c(c1COc1cc(F)ccc1C)C(C)=CC(C)(C)N2` [Compound 1-2, 6-(4-t-Butoxycarbonylaminoacetoxy-2-methoxyphenyl)-5-(5-fluoro-2-methylphenoxymethyl)-2,2,4-trimethyl-1,2-dihydroquinoline] has an inhibition at 10 µM of 100%.

— patent US8440660B2 (Santen Pharmaceutical Co., Ltd., priority 2006, dated 2013)
